Starred links: 1 amine or outer side, 2 acyl side, 3 side chain; linkers in the order of their positions; H or OH if unused. Positions of bridges follow the written chain, without caps; N, C: chain ends. Non-standard residues stand in square brackets, D forms with d. Residues, ends and D or L forms follow the SMILES beside them. 1Nal = N[C@@H](Cc1cccc2ccccc12)C(=O)O; TBMB = c1c(C[*:1])cc(C[*:3])cc1C[*:2]; Tle = CC(C)(C)[C@H](N)C(=O)O; βAla = NCCC(=O)O; Sar = CNCC(=O)O
Experiments:
[1] = biological target: MMP16 (Homo sapiens, UniProt P51512); experiment: Binding to related MMP family member
[2] = biological target: T1, Pro-MMP1 (Homo sapiens, UniProt P03956); experiment: Binding to related MMP family member
T1 construct: MMP family members tested (MMP15, MMP16, MMP24, MMP1, Pro-MMP1, MMP2)
T1 sequence (P03956 20-469 limits assumed): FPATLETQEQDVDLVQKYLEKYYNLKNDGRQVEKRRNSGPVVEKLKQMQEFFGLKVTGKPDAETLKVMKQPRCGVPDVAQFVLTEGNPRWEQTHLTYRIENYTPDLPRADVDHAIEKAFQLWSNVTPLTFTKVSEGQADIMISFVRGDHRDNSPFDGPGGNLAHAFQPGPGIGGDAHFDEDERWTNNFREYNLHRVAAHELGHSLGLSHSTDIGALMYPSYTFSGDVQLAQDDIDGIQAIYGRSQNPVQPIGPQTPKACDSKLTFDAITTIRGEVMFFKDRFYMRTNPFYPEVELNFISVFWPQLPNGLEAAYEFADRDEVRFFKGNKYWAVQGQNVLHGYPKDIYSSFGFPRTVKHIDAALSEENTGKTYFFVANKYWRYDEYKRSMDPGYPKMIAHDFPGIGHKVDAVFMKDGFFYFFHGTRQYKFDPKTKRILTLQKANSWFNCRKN

[3] = biological target: MMP9 (Homo sapiens, UniProt P14780); experiment: Effect on related MMP catalytic activity; format: biochemical; conditions: in vitro
[4] = biological target: T2, MMP1 (Homo sapiens, UniProt P03956); experiment: Effect on related MMP catalytic activity; format: biochemical; conditions: in vitro
T2 sequence (P03956 100-469): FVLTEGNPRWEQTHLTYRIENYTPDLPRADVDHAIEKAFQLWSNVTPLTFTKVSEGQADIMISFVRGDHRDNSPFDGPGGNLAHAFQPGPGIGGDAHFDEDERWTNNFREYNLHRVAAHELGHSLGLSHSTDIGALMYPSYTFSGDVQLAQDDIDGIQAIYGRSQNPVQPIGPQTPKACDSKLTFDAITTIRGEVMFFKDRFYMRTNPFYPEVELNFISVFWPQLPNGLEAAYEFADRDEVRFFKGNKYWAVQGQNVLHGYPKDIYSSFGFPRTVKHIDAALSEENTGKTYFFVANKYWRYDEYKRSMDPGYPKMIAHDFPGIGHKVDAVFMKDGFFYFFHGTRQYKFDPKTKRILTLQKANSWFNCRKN

[5] = biological target: MMP24 (Homo sapiens, UniProt Q9Y5R2); experiment: Binding to related MMP family member
[6] = biological target: T3, MMP2 (Homo sapiens, UniProt P08253); experiment: Effect on related MMP catalytic activity; format: biochemical; conditions: in vitro
T3 sequence (P08253 110-660): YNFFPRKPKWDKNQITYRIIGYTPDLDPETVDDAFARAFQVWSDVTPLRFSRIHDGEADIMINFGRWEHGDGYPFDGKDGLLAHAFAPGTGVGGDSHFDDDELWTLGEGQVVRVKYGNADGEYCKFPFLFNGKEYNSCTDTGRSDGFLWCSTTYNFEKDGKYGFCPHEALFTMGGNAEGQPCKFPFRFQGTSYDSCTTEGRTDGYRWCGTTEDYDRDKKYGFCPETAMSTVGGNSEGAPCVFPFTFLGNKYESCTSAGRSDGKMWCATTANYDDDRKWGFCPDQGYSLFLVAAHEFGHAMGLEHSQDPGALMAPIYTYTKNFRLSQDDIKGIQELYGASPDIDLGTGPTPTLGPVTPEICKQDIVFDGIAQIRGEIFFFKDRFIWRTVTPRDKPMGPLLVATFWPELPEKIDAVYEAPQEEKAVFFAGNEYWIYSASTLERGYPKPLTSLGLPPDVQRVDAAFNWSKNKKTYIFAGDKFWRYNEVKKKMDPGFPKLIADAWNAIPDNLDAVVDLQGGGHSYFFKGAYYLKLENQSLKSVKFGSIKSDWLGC

[7] = biological target: T2, MMP1; experiment: Binding to related MMP family member
[8] = biological target: MT1 (Homo sapiens, UniProt P50281); experiment: Effect on catalytic activity of the protease in vitro; format: biochemical
[9] = biological target: T3, MMP2; experiment: Binding to related MMP family member
[10] = biological target: catalytic domain of MT1 (Homo sapiens, UniProt P50281); experiment: Bicycle peptide binding to catalytic domain
[11] = biological target: MMP15 (Homo sapiens, UniProt P51511); experiment: Binding to related MMP family member
[12] = tested on: cell migration or invasion; experiment: Effect on cell migration or invasion; format: cell-based; conditions: in vitro
[13] = tested on: MT1-positive tumor xenografts; experiment: Tumor localization after IV injection into mice bearing MT1-positive tumor xenografts; conditions: mouse, in vivo

MMP15, sequence (P51511 132-669, species assumed): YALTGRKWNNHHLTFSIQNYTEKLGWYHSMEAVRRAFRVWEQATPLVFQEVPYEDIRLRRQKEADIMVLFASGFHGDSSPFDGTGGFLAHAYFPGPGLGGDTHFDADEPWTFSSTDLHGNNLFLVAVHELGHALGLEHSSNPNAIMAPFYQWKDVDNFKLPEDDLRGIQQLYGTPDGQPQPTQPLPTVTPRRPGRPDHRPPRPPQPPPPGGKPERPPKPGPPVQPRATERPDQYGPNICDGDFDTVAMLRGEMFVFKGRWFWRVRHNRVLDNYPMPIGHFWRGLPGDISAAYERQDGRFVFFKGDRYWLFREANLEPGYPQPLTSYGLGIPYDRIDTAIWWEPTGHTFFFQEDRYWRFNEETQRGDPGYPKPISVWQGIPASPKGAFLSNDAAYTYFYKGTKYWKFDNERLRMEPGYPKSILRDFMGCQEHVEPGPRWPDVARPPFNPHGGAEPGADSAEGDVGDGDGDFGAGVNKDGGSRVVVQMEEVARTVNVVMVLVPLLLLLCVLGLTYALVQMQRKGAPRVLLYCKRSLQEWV
MMP24, sequence (Q9Y5R2 156-645, species assumed): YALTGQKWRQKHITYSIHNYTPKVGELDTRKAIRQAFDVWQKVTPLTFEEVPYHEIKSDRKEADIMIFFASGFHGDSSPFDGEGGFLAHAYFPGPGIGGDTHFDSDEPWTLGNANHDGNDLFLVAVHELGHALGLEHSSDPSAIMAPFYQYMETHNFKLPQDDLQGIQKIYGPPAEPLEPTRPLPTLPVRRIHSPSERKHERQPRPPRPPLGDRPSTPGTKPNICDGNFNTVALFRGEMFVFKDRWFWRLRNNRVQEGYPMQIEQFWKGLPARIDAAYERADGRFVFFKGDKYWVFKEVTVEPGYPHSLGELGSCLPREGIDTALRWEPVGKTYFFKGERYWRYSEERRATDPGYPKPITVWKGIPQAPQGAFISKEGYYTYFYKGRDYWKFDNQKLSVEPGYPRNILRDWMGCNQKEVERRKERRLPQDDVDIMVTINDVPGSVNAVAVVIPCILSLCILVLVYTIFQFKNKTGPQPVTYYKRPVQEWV
MMP9, sequence (P14780 94-707, species assumed): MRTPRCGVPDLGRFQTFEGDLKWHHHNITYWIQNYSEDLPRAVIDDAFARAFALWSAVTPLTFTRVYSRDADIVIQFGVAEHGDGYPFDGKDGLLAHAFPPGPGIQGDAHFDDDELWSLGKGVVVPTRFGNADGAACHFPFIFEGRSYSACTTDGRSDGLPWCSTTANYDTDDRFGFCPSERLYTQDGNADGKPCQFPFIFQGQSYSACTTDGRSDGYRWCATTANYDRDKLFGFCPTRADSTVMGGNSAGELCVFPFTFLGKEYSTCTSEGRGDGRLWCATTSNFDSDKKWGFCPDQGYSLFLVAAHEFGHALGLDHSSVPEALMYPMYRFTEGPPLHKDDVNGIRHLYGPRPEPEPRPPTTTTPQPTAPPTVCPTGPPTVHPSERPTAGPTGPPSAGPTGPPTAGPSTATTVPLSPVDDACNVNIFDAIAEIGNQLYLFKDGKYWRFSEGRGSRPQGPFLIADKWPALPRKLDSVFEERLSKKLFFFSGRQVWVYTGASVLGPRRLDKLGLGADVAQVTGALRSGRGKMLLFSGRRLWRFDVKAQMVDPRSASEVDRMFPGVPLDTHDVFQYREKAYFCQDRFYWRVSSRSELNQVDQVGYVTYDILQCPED
MMP16, sequence (P51512 120-607, species assumed): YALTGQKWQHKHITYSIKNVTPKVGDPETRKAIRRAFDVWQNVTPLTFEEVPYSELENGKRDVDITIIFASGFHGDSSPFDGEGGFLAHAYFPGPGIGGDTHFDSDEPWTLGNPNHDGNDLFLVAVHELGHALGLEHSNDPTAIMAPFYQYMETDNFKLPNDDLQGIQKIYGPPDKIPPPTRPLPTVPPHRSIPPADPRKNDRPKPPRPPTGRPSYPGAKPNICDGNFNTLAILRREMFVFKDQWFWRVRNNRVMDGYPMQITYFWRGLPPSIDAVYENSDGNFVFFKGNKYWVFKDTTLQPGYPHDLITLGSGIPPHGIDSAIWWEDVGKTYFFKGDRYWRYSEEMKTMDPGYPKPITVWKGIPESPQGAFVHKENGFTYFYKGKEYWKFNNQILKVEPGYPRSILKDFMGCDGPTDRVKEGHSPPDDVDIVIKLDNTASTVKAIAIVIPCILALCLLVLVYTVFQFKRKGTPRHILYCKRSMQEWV

SMILES | binding toward MMP16 [1] | binding toward Pro-MMP1 [2] | impact on MMP9 catalytic activity [3] | impact on MMP1 catalytic activity [4] | binding toward MMP24 [5] | impact on MMP2 catalytic activity [6] | binding toward MMP1 [7] | impact on the catalytic activity of the protease (MT1) [8] | binding toward MMP2 [9] | binding to the catalytic domain [10] | binding toward MMP15 [11] | impact on cell migration or invasion [12] | tumor localization [13]
C[C@H](NC(=O)CN(C)C(=O)CN(C)C(=O)CN(C)C(=O)CN(C)C(=O)CN(C)C(=O)CN(C)C(=O)CN(C)C(=O)CN(C)C(=O)CN(C)C(=O)CN(C)C(=O)CCN)C(=O)N[C@H]1CSCc2cc3cc(c2)CSC[C@H](NC(=O)[C@@H](C)NC(=O)[C@H](Cc2cccc4ccccc24)NC(=O)[C@H](CCC(=O)O)NC(=O)[C@H](CC(N)=O)NC(=O)[C@@H](C)NC1=O)C(=O)N[C@@H](CCC(=O)O)C(=O)N[C@@H](CC(=O)O)C(=O)N[C@@H](Cc1ccccc1)C(=O)N[C@@H](Cc1ccc(O)cc1)C(=O)N[C@@H](CC(=O)O)C(=O)N[C@@H](C(C)(C)C)C(=O)N[C@H](C(N)=O)CSC3 [N241] (H-[βAla][Sar][Sar][Sar][Sar][Sar][Sar][Sar][Sar][Sar][Sar]AC[dA]NE[1Nal][dA]CEDFYD[Tle]C-NH2; linker 13-19-26 via TBMB) | no binding | no binding | no direct impact | no direct impact | no binding | no direct impact | no binding | no direct impact | no binding | no binding | no binding | no direct impact | 
C[C@H](NC(=O)CN(C)C(=O)CN(C)C(=O)CN(C)C(=O)CN(C)C(=O)CN(C)C(=O)CN(C)C(=O)CN(C)C(=O)CN(C)C(=O)CN(C)C(=O)CN(C)C(=O)CCN)C(=O)N[C@H]1CSCc2cc3cc(c2)CSC[C@H](NC(=O)[C@@H](C)NC(=O)[C@H](Cc2cccc4ccccc24)NC(=O)[C@H](CCC(=O)O)NC(=O)[C@H](CC(N)=O)NC(=O)[C@@H](C)NC1=O)C(=O)N[C@@H](CCC(=O)O)C(=O)N[C@@H](CC(=O)O)C(=O)N[C@@H](Cc1ccccc1)C(=O)N[C@@H](Cc1ccc(O)cc1)C(=O)N[C@@H](CC(=O)O)C(=O)N[C@@H](C(C)(C)C)C(=O)N[C@H](C(N)=O)CSC3 [^177Lu-loaded N241, metal not drawn] (H-[βAla][Sar][Sar][Sar][Sar][Sar][Sar][Sar][Sar][Sar][Sar]AC[dA]NE[1Nal][dA]CEDFYD[Tle]C-NH2; linker 13-19-26 via TBMB; N-terminus and C-terminus assumed) |  |  |  |  |  |  |  |  |  |  |  |  | rapid tumor localization
